Assay results: patent US20130029998A1, “Method of Detecting and Profiling Progression of the Risk of Neurodegenerative Diseases” (priority 2010, published 2013)

Tests used:
[1] = tested on: Splotch homozygous (Sp−/−) embryos; experiment: Rescue of neural tube defect in Pax3 mutant Splotch mouse model of spina bifida; format: in vivo
[2] = tested on: Splotch homozygous (Sp−/−) embryos; experiment: H3K27me2, H3K27me3 and KDM6B staining of neural tube explants from folate-rescued Splotch homozygous embryos; format: in vivo, mouse; details: folate-rescued Sp−/− embryos E10.0 (30 somite), neural crest cells of neural tube explants, compared with wild-type
Experimental: After 140 hours neural crest cells were allowed to differentiate in the absence of growth factor for 2 days. After differentiation, neural crest cells from wild-type and Sp−/− embryo explant cultures were stained with DAPI, H3K27me2, H3K27me3 and KDM6B antibodies (Abeam, Inc Cambridge, Mass. 02139-1517). DAPI, H3K27me2, H3K27me3 and KDM6B positive cells from five different explant cultures were counted and expressed as a percentage of DAPI positive cells. […] The protein loading control was ascertained with Ponseau S staining.

In the case of `Nc1nc2ncc(CNc3ccc(C(=O)N[C@@H](CCC(=O)O)C(=O)O)cc3)nc2c(=O)[nH]1` [Folic acid, folic acid], the neural tube defect [1] is reported as “rescue of neural tube defect”, the “H3K27me2 expression (positive cells as a percentage of DAPI positive cells)” value [2] is reported as “reversal to near wild-type expression” and the “H3K27me3 expression (positive cells as a percentage of DAPI positive cells)” value [2] is reported as “reversal to near wild-type expression”. The “KDM6B expression (positive cells as a percentage of DAPI positive cells)” value [2] was “reversal to near wild-type expression” and the “H3K27me2 expression (positive cells as a percentage of DAPI positive cells)” value ([2]; listed as folic acid) was “reversal”.
